US20050004014A1, “New compound” (FUJISAWA PHARMACEUTICAL CO., LTD., priority 2003, published 2005)

Tested on: Candida albicans FP-633
Assay type: cell-based
Settings: FP-633, 24 h, pH 7.3
Experimental: In vitro antimicrobial activity of the object compound of Examples 1, 2, 3 and 4 disclosed later was determined by MICS in mouse serum as described below. The MICS in mouse serum were determined by the microdilution method using ICR mouse serum buffered with 20 mM HEPES buffer (pH 7.3) as a test medium. Inoculum suspension of 10^6 cells/ml were prepared by a hemocytometric procedure and diluted to obtain an inoculum size of approximately 1.0×10^3 cells/ml. Microplates were incubated at 37° C. for 24 hours in 5% CO2. The MICS were defined as the lowest concentrations at which no visible growth was observed.

Row | MIC [µg/mL] | Compound
1 | <0.15 | COc1cc(C[C@@H](O)[C@@H]2NC(=O)[C@@H]3C[C@@H](O)CN3C(=O)[C@H]([C@@H](C)O)NC(=O)[C@@H](NCc3ccc(-c4nnc(-c5ccc(N6CCC(OC)(C7CCCCC7)CC6)cc5)s4)cc3)C[C@@H](O)CNC(=O)[C@@H]3[C@@H](O)[C@@H](C)CN3C(=O)[C@H]([C@H](O)CCNC(CO)CO)NC2=O)ccc1O [Example 3]
2 | <0.15 | COc1cc(C[C@@H](O)[C@@H]2NC(=O)[C@@H]3C[C@@H](O)CN3C(=O)[C@H]([C@@H](C)O)NC(=O)[C@@H](NCc3ccc(-c4nnc(-c5ccc(N6CCN(C7CCCCC7)CC6)cc5)s4)cc3)C[C@@H](O)CNC(=O)[C@@H]3[C@@H](O)[C@@H](C)CN3C(=O)[C@H]([C@H](O)CCNC(CO)CO)NC2=O)ccc1O [Example 4]
3 | <0.15 | COc1cc(C[C@@H](O)[C@@H]2NC(=O)[C@@H]3C[C@@H](O)CN3C(=O)[C@H]([C@@H](C)O)NC(=O)[C@@H](NCc3ccc(-c4nnc(-c5ccc(N6CCN([C@H]7CC[C@@H](C)CC7)CC6)cc5)s4)cc3)C[C@@H](O)CNC(=O)[C@@H]3[C@@H](O)[C@@H](C)CN3C(=O)[C@H]([C@H](O)CCN)NC2=O)ccc1O [Example 1]
4 | <0.15 | COc1cc(C[C@@H](O)[C@@H]2NC(=O)[C@@H]3C[C@@H](O)CN3C(=O)[C@H]([C@@H](C)O)NC(=O)[C@@H](NCc3ccc(-c4ccc(N5CCN([C@H]6CC[C@](OC)(C7CCCCC7)CC6)CC5)cc4)cc3)C[C@@H](O)CNC(=O)[C@@H]3[C@@H](O)[C@@H](C)CN3C(=O)[C@H]([C@H](O)CCN)NC2=O)ccc1O [Example 2]
